The record followed here is US20040132969A1, “Antibodies, peptides, analogs and uses thereof” (priority 2000, published 2004).

“Also recorded” adds a separate entry of the source.

One series deals with HUVEC and fibroblasts. Kind of series: BrdU ELISA cell proliferation cytotoxicity assay. The series is classed as cell-based, human. Particulars: HUVEC and fibroblast monocultures; 24 hours. Here is the method:
In order to determine whether the fibrin E analogue peptides WTM33, WTM34, WTM35, WTM36, and WTM37 are cytotoxic when applied to the HUVEC and fibroblasts used in the Angiosys™ angiogenesis assay, these reagents were examined in two different cytotoxicity assays. To simplify performance of these assays and discriminate between fibroblasts and HUVEC, cells were grown in monocultures rather than together and then treated with the experimental reagents as described below.
Cytotoxicity of the fibrin E peptide analogues was also determined by examining cell proliferation, using a commercial BrdU ELISA (Roche Molecular Biochemicals) performed according to the manufacturer's instructions. This assay quantifies DNA synthesis as a measure of cellular proliferation, as stimulation or inhibition of cell replication will require a concomitant change in the rate of DNA synthesis. Measurement of DNA synthesis is achieved by incubating proliferating cells in medium in which thymidine has been replaced with the pyrimidine analogue 5-bromo-2′-deoxyuridine (BrdU). Once incorporated into the cellular DNA, BrdU is measured by immunoassay. Briefly, HUVEC and fibroblasts were seeded as monocultures into 96 well plates at a density of 5×10^3 cells per well, to a final volume of 100 μl per well in endothelial cell culture medium. At the end of an initial culture period of 72 hours under standard conditions, while the cells were still proliferating, fibrin E analogue peptides were added to a range of final concentrations, as shown in the FIG. 8. Each treatment concentration of each peptide was administered to four replicate wells. Control cells received standard medium without test compounds. The cells were incubated for 24 hours with the test compounds, before 10 μl of stock BrdU solution (100 μM) was added to give a final concentration of 10 μM BrdU, and the cells were incubated for a further 2 hours. The test medium was then removed from the cells and replaced with 200 μl per well of Fixing/Denaturing solution, which was incubated on the cells for a further 30 minutes at room temperature. This was then replaced with 100 μl per well anti-BrdU-POD (mouse monoclonal clone BMG 6H8, Fab fragments conjugated to peroxidase) prepared as directed, which was left on the cells for a further 90 minutes at room temperature. The antibody conjugate was then removed from the wells by rinsing three times in 200 μl per well of washing buffer (PBS) before 100 μl well substrate solution (tetramethyl-benzidine) was added and incubated at room temperature until colour development was sufficient for photometric detection (approximately 15 minutes). Absorbance at 370 nm was measured on a multi-well plate ELISA plate reader (Dynatech), with a reference wavelength of 492 nm. Mean absorbance values from each group of four wells were calculated and expressed as a percentage±standard deviation of the mean value obtained from control wells incubated in the absence of fibrin E analogue peptide.
For orientation: Incorporation of labelled thymidine or its analogues reports DNA synthesis.

The subject of series [1] is Lewis Lung Carcinoma (LLC) cells. Kind of series: Pulmonary tumour metastasis model (Lewis lung carcinoma). The series is classed as in vivo, C57BL/6J mice. Particulars: lung weight / metastatic episodes. The method, then:
In the metastasis model, Lewis Lung Carcinoma (LLC) cells are injected into the tail of the mouse, lodge in the lungs, and grow and spread rapidly.
In more detail, groups of five C57BL/6J mice were injected with 5×10^4 LLC cells via the tail vein and were subsequently treated intraperitoneally with various concentrations of tested peptides or equal volume of diluent control. The treatment was initiated three days after tumor cell inoculation. Two weeks after the intravenous injection of tumor cells, the mice were sacrificed and necropsied. The lungs were removed, weighed and compared to untreated controls, and to normal lungs without tumors. Results were analyzed for statistical significance using the Student's t-test.

Series [2] deals with FDP induced cell proliferation in the chick CAM. Briefly: CAM cell proliferation assay in the presence of FDP. Format: in vivo. The method, then:
Cell proliferation was measured using the chick chorioallantoic membrane (CAM) model as described previously (4, 29, 30).
Briefly, on day zero, fertile hens' eggs, are placed in an egg incubator 37.5° C. with pointed ends facing downwards. On day 3, using a 2 ml syringe with a 21G needle, 2 ml of albumen is removed and the eggs returned to the incubator. On day 4, each egg is punctured by a needle at the blunt end into the air space. A square of shell is then removed, causing the egg contents to drop into the space left by collapse of the air space at the end of the egg and the withdrawal of albumen. The volume of the space above the dropped CAM is approximately 7 ml. The square opening in the shell is covered with Sellotape (RTM). The eggs then have to be kept level in the incubator without tilting. On day 10, the surviving eggs are organised into groups of preferably no less than 10. Test and control samples are prepared and each egg receives 0.3 ml of sample injected through the Sellotape (RTM) onto the upper surface of the CAM.
The technique of removal of each CAM is simple but crucial to the rationale of achieving results expressed as total DPM per CAM. By 20 min, methyl-[^3H]thymidine is incorporated only into the CAM which has been directly exposed. Beyond 30 min, [^3H]thymidine becomes detectable in adjacent CAM that is applied to the shell, via uptake from the bloodstream. Each CAM is removed by holding the egg in the palm of one hand, Sellotape window face down, and piercing the side with pointed scissors well above the level of the dropped CAM. Scissors are used to cut round the shell, and the residual yolk and embryo tipped out into a disposal container once the umbilical vessels connecting the embryo to the CAM are cut. […]
The assay used is based on quantitative measurement of DNA synthesis in the CAM after exposure to control and test substances 18 h after application in liquid form to the whole “dropped” area of each CAM (4,29). […]

In the case of LHADPDLGVLCPTGC [WTM34], the “cytotoxicity / cell proliferation, BrdU assay” value in the series with HUVEC and fibroblasts was “not cytotoxic; also recorded: no toxicity”. In addition, in series [1], the “effect in metastasis model (in words)” value is reported as “striking results”. Further, the “effect on FDP-induced stimulation of cell proliferation” value in series [2] (low / lower concentrations of peptide, 5 μM FDPs) is listed as “significant inhibition of the FDP induced stimulation”; in series [2] (peptide at 4.633 μM and 9.265 μM, 5 μM FDPs), “does not appear to affect the FDP-induced stimulation of cell proliferation”; in series [2] (peptide in the presence of FDPs (5 μM) / fibrin) it was “some inhibitory effect”.
